The results in this text go back to patent publication US8372808B2, “Suppression of glial fibrillary acidic protein” (Wisconsin Alumni Research Foundation, priority 2008, dated 2013).

Data set [1] concerns 2.2 kb human GFAP promoter. Nature of the data set: hGFAP promoter luciferase activity assay in 172.9 cells (primary astrocytes from dual luciferase transgenic mice). It is filed as cell-based. Particulars: for reductions in luciferase activity: quaternary screen, 10 days of exposure, 0-20 μM; for % GFAP reductions, luciferace expression from hGFAP promoter: tertiary screen, 48 hr exposure, at the MTDcc. The method, then: Cell-based assays were performed as four different screens using enriched cortical primary astrocyte cultures developed from transgenic mice expressing both firefly and Renilla luciferase reporter genes were generated. Briefly, the'firefly luciferase was placed under the control of a 2.2 kb human GFAP promoter to monitor GFAP transcription, and the Renilla luciferase was placed under the control of a 0.5 kb human GAPDH (glyceraldehyde 3-phosphate dehydrogenase) promoter to monitor transcription of a housekeeping gene for signal normalization. See section B, below for more detail regarding the development of transgenic mouse strains. Cells used in the following examples (e.g., the cortical primary astrocyte cells termed “172.9 cells,” described below) were developed from the transgenic mice described in section B.
Briefly, the cortices from individual pups were freed of meninges and placed into DMEM (Gibco) without serum, mechanically disassociated into single cells, suspended in medium containing DMEM supplemented with 10% fetal bovine serum (FBS; Hyclone), 100 U/ml penicillin, 100 μg/ml streptomycin (Gibco), seeded into T25 flasks (one brain per flask), and maintained in a humidified 5% CO2 atmosphere at 37° C. […] Medium was changed every 3 days. At 14-16 days in vitro (DIV), the flasks were shaken overnight at 200 rpm to remove oligodendrocytes and microglia. […] The cells were then suspended in DMEM with 10% FBS and plated (“passage 2”) on either 35 mm dishes, […], or 96-well plates (Corning) as needed. Cells were grown for varying days in vitro (DIV) at passage 2 and then used for various experiments. Tissue culture dishes and plates were pre-coated with 100 μg/ml poly-L-lysine for 1 h in a humidified 5% CO2 atmosphere at 37° C., and then allowed to air dry. […] Cell density was measured with the Vi-CELL cell counter (Beckman Coulter) or hemocytometer by the trypan-blue exclusion method. For simplicity, cells are referred to as “172.9 cells.”
Briefly, 172.9 cells were plated on poly-L coated white 96-well plates at a density of 5000 cells per well, in 100 μl DMEM with 10% FBS. At twenty-four hours, cells were exposed to the different compounds at a final concentration of 10 μM (diluted from a 50 mM stock) prepared in new medium (DMEM with 10% FBS). […] After exposure to compounds, luciferase activity in the primary and secondary screenings was determined by adding 30 μl of Bright-Glo™ reagent (Promega) to the 100 μl of media and cells of each well in the white 96-well plates with the Biomek® FX liquid handler (Beckman Coulter). After incubation for 1 minute at room temperature, signals were measured with the Safire 2 plate reader using Magellan™ software (Tecan). Other specific methods and equipment are known in the art and can be used to measure luciferase expression levels. This assay method is termed the “hGFAP promoter luciferase activity assay.” A reduction in luciferase expression as determined by this assay is termed “hGFAP promoter luciferase reduction.” For some assays that were aimed at confirming results of the initial screens, the same amount of Bright-Glo™ reagent was applied to each well in 96-well plates and signals were detected with the GloRunner™ Microplate Luminometer (Turner Biosystems) using the Dual-Glo® luciferase assay according to the manufacturer's recommendations (E1910, Promega).
In the secondary screen, cells were plated in a 96-well plate as described above for the primary screen.
Some compounds were unavailable outside of the library collections, and could not be further tested.
Each compound and concentration was analyzed in quadruplicate wells.
(§1) Compounds were tested at eight different concentrations ranging from 0-20 μM. In addition, GFAP protein levels were measured using a sandwich ELISA, which has greater sensitivity and is more accurate than the cell-based ELISA used in the primary screens.

Data set [2] deals with GFAP protein. Nature of the data set: sandwich ELISA for GFAP protein in 172.9 cells, quaternary screen. It is filed as cell-based, mouse. Conditions: 10 days of exposure, 0-20 μM. The method, then:
as §1
The extracts were harvested from each well and the total GFAP content of each well was measured by a sandwich ELISA as described below. Briefly, separate microtiter plates were coated with SMI-26 anti-GFAP mouse monoclonal antibody cocktail (1:1000, Covance, diluted in PBS) overnight at 4° C., rinsed 3 times in PBS, and then blocked with Blotto (5% nonfat milk/PBS) for 2 h at RT. Samples from the astrocyte cell lysate (20 μl per well) were loaded onto the plates and brought up to 100 μl with 0.5% Triton X-100/PBS (a buffer used for subsequent antibody incubations and rinses), and incubated with a rabbit polyclonal anti-GFAP antibody (1:5000, DAKO) overnight at 4° C. The plates were rinsed three times and then incubated with HRP-conjugated goat anti-rabbit IgG (1:30,000, Sigma) for 2 h at RT. After three final rinses, peroxidase activity was detected using the Super Signal Femto maximum Sensitivity Substrate (Pierce) with a GloRunner microplate luminometer (Turner Biosystems). The GFAP content in the samples was determined from a standard curve generated using serial dilutions of purified GFAP (Research Diagnostics).
A general note: In an ELISA, binding on a coated surface is turned into a signal by an enzyme label.

Data set [3] deals with 172.9 cells. Briefly: cell viability (CellTiter-Glo) / MTDcc in 172.9 cells. The method, then:
Criterion for acceptable viability was >70% survival.
Cell viability was determined as follows. After exposure to each compound (duplicate wells per compound), 50 μl of CellTitier-Glo Luminescent Cell Viability Assay reagent (G7571, Promega) was added to the 100 μl of media present in each well, and the luminescent signal (reflecting intracellular ATP level) was detected with either a Victor 3-V plate reader (Perkin Elmer) or GloRunner Microplate Luminometer (Turner Biosystems). Cell viability was expressed as a percent of non-treated control cells.
A dose-response curve was created for each compound (0.1, 0.5, 1, 5, 10, 15, 20 μM) using 48 hr exposures. The MTDcc (“maximum tolerated dose—cell culture”) indicates the highest concentration that retained at least 70% cell viability. Each compound and concentration was analyzed in quadruplicate wells. EGCDG: epigallocatechin 3,5-digallate; NPPB: 5-nitro-2-phenylproplyaminobenzoic acid. As used herein, MTDcc refers to the MTD as determined by this assay under the above conditions.

Data set [4] has as its system mGFAP protein. Nature of the data set: cell-based GFAP protein level assay (cell-based ELISA) in 172.9 cells. On the set-up: species or system mouse. Particulars: for % GFAP reductions, mGFAP protein via ELISA: tertiary screen, 48 hr exposure, at the MTDcc.
The mark [5] stands for this setting: secondary screen, 10 μM, 48 hours.

Molecules are shown by their SMILES. Read-outs that look alike come from different tables or passages of the source.

Consider `CN(C)CCC=C1c2ccccc2CCc2ccccc21` [amitriptyline], for which, in data set [1], the “reductions in luciferase activity” value is listed as “consistent reductions” and the “% GFAP reductions, luciferace expression from hGFAP promoter” value was 63%. Further, in data set [2], the “reductions in GFAP protein levels” value is recorded as “consistent reductions”. For the same molecule, the cell viability result in data set [3] is “acceptable cell viability”. In data set [3] (mouse, 48 h), this molecule had an MTDcc of over 20 µM. Further, the “% GFAP reductions, mGFAP protein via ELISA” value in data set [4] is 12.2%.
For the molecule `O=C(Oc1cc(O)cc2c1C[C@@H](OC(=O)c1cc(O)c(O)c(O)c1)[C@@H](c1cc(O)c(O)c(O)c1)O2)c1cc(O)c(O)c(O)c1` [EGCDG, epigallocatechin 3,5-digallate], in data set [1], the “reductions in luciferase activity” value is reported as “consistent reductions” and the “% GFAP reductions, luciferace expression from hGFAP promoter” value was found to be 57%. Besides, the “suppression in the promoter assay” value in data set [1] (setting [5]) is on record as “significant suppression”. Further, the “reductions in GFAP protein levels” value in data set [2] was “consistent reductions”. Besides, in data set [3], the MTDcc amounted to 17.5 µM and the cell viability result is given as “acceptable cell viability”. Also, in data set [4] (setting [5]), the “suppression in the protein assay” value is recorded as “significant suppression”. Moreover, the “% GFAP reductions, mGFAP protein via ELISA” value in data set [4] is listed as 4.5%.
